ChEMBL document CHEMBL1201862, “PubChem BioAssay data set” (2004)
Activity calls are given as the source filed them.

What was measured:
Troponin, cardiac muscle = Troponin, cardiac muscle (Homo sapiens, UniProt P19429+P45379+P63316); assay: Fluorescence-based biochemical high throughput dose response assay for activators of the calcium sensitivity of cardiac Regulated Thin Filaments (RTF). [Related pubchem assays (depositor defined):AID493008, AID493018, AID504382, AID504383]; type: protein-complex assay
[1] = biological target: T1, Endoribonuclease toxin MazF (Escherichia coli K-12, UniProt P0AE70); assay: MazF toxin RNase activators, dose response, biochemical, fluorescence, single-stranded RNA substrate, uHTS hits (AID 588481); type: functional
T1 sequence (P0AE70 whole entry): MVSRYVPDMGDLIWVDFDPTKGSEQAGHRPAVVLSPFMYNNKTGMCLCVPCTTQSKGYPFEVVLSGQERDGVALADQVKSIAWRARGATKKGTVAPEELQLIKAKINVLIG

[2] = biological target: Guanyl-specific ribonuclease T1 (Aspergillus oryzae (strain ATCC 42149 / RIB 40), UniProt P00651); assay: RNase T1 inhibitors, dose response, counter-screen for TPT1 inhibitor project, biochemical, fluorescence polarization, 1536-well (AID 2167)
[3] = biological target: Likely tRNA 2'-phosphotransferase (Candida albicans (strain SC5314 / ATCC MYA-2876) (Yeast), UniProt Q5A7N4); assay: TPT1 tRNA phosphotransferase inhibitors, dose response, biochemical, fluorescence polarization (AID 2160)
Mucolipin-3 = Mucolipin-3 (Homo sapiens, UniProt Q8TDD5); assay: Fluorescence counterscreen assay for […] agonists: dose response cell-based high-throughput screening assay to identify agonists of the transient receptor potential channel ML3 (TRPML3). [Related pubchem assays: 1424, 1448 ]; type: functional
[4] = biological target: T1, Endoribonuclease toxin MazF; assay: fluorescent RNA oligo signal without MazF, dose response, counter-screen for MazEF activator project, biochemical, fluorescence, single-stranded RNase substrate (AID 588502); type: functional
Ion channel NompC = Ion channel NompC (Danio rerio, UniProt Q7T1G6); assay: Dose response cell-based high-throughput screening assay for agonists of the transient receptor potential channel N1 (TRPN1). [Related pubchem assays (depositor defined):AID1424, AID1448]; type: functional
[5] = biological target: T2, Tyrosine-protein phosphatase non-receptor type 22 (Homo sapiens, UniProt Q9Y2R2); assay: LYP (PTPN22) phosphatase inhibitor potency, SAR follow-up, biochemical, pCAP fluorogenic substrate, fluorescence, set 3 (AID 449727); type: functional
T2 sequence (Q9Y2R2 whole entry): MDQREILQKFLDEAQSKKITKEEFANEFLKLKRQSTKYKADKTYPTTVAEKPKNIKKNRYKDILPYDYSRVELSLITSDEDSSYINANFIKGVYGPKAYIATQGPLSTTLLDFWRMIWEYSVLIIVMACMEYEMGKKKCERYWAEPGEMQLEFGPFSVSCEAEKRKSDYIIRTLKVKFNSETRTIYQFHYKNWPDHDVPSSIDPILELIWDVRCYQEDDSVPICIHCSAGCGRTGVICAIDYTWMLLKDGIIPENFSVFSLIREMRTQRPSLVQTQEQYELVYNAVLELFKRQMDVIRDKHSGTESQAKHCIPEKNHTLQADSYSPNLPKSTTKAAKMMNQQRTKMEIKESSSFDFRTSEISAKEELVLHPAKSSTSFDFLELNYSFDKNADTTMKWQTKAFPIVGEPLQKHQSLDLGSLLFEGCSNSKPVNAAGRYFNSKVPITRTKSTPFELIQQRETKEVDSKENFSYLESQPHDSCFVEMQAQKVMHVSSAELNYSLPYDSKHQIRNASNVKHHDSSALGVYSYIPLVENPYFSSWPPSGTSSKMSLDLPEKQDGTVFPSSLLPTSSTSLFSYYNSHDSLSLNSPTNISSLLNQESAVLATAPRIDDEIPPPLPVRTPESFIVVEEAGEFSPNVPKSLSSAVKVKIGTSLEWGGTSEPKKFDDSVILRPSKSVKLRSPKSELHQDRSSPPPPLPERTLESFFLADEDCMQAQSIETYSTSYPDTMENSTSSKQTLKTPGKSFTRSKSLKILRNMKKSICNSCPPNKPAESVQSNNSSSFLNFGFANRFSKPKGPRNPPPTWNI

[6] = biological target: Tyrosine-protein phosphatase non-receptor type 5 (Homo sapiens, UniProt P54829); assay: STEP phosphatase inhibitors, confirmation, biochemical, fluorescence intensity, uHTS hits (AID 602372); type: functional; details: read-out: IC50_Mean
[7] = biological target: Tyrosine-protein phosphatase non-receptor type 12 (Homo sapiens, UniProt Q05209); assay: SAR Selectivity Analysis of small molecule inhibitors of PEST using pCAP in a fluorescence assay. [Related pubchem assays (depositor defined):AID1779, AID1784, AID2135]; type: functional
[8] = biological target: T2, Tyrosine-protein phosphatase non-receptor type 22; assay: SAR LYP1 Fluorescent Assay using OMFP substrate for In Vitro dose response studies - Set 3. [Related pubchem assays (depositor defined):AID1779, AID1784, AID2140, AID2686]; type: functional
[9] = biological target: T3, Dual specificity protein phosphatase 6 (Rattus norvegicus, UniProt Q64346); type: functional;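 also: confirmatory in vitro dose-response testing of MKP-3 inhibition; recombinant His-tagged MKP-3 made in E. coli BL21 with OMFP substrate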
T3 sequence (Q64346 whole entry): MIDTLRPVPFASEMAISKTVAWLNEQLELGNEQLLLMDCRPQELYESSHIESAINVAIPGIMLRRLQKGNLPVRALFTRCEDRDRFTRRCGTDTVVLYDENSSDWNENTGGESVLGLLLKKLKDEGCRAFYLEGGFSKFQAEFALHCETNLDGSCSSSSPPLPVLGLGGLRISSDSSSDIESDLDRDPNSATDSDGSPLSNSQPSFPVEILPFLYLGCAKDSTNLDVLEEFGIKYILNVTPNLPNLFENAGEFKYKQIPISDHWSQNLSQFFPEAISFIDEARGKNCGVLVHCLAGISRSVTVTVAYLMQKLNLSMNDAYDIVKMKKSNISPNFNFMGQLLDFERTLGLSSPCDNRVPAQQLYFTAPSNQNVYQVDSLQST

[10] = biological target: Tyrosine-protein phosphatase non-receptor type 11 (Homo sapiens, UniProt Q06124); assay: SHP2 phosphatase inhibition, dose response, selectivity assay for STEP inhibitor project, biochemical (AID 602367); type: functional; details: read-out: IC50_Mean
[11] = biological target: T4, Tyrosine-protein phosphatase non-receptor type 7 (Homo sapiens, UniProt P35236); assay: HePTP (PTPN7) phosphatase inhibitor potency, SAR follow-up, biochemical, set 2 (AID 449736); type: functional
T4 sequence (P35236 whole entry): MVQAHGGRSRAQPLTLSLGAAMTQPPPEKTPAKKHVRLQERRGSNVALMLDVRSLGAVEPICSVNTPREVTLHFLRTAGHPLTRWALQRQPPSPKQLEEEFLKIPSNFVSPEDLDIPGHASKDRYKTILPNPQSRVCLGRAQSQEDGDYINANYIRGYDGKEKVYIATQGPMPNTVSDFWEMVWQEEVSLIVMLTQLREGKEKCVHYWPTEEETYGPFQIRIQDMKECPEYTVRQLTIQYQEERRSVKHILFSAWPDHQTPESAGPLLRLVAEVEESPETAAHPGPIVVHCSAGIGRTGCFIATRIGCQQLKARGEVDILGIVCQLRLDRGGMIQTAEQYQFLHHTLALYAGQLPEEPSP

[12] = biological target: T5, Dual specificity protein phosphatase 3 (Homo sapiens, UniProt P51452); assay: SAR VHR1 Fluorescent Assay for In Vitro dose response studies Set 2. [Related pubchem assays (depositor defined):AID1654, AID1661, AID1878]; type: functional
[13] = biological target: T4, Tyrosine-protein phosphatase non-receptor type 7; assay: redox-dependent HePTP inhibition, mechanism study, biochemical, fluorescence (AID 2068); type: functional
[14] = biological target: T5, Dual specificity protein phosphatase 3; assay: VHR phosphatase inhibition, dose response, selectivity assay for STEP inhibitor project, biochemical (AID 602374); type: functional; details: read-out: IC50_Mean
[15] = biological target: T2, Tyrosine-protein phosphatase non-receptor type 22; assay: PTPN22 phosphatase inhibition, dose response, selectivity assay for STEP inhibitor project, biochemical (AID 624241); type: functional

In the case of Cc1ccc(-c2ccc(OC(=O)c3ccc(=O)[nH]c3)c(C)c2)cc1, the EC50 (Troponin, cardiac muscle) is reported as > 71.5 µM (inactive).
For CC(=O)N1C(=O)C(=C2C=C(C)OC(C)=C2)c2ccccc21, the EC50 [1] was > 99 µM (inactive), the IC50 [2] was 2.13 µM (active) and the IC50 [3] was > 2.06 µM (active). For the same molecule, the EC50 (Mucolipin-3) was > 29.9 µM (not active), the EC50 [4] was > 99 µM (inactive) and the EC50 (Ion channel NompC) was 22 µM (inactive).
For CCc1ccc(NC2=NC(=O)/C(=C/c3ccc(OCC(=O)O)cc3)S2)cc1, the IC50 [5] was 12.9 µM (active), the IC50 [6] was 24.3 µM (inactive) and the IC50 [7] was 12.6 µM (active). For the same molecule, the IC50 [8] was 31.7 µM (active), the IC50 [9] was > 100 µM (inactive) and the IC50 [10] was 9.52 µM (active). For the same molecule, the IC50 [11] was 3.25 µM (active), the IC50 [12] was 18.9 µM (active) and the IC50 [13] was 4.53 µM (active). For the same molecule, the IC50 [14] was 10.4 µM (active) and the IC50 [15] was > 100 µM (inactive).
